Results on nine molecules are retold here after ChEMBL document CHEMBL4706748, “Targeting KRAS Mutant Cancers via Combination Treatment: Discovery of a Pyridopyridazinone pan-RAF Kinase Inhibitor” (ACS Med Chem Lett, 2021).

Data set [1] has as its system A-375. Kind of data set: Antiproliferative activity against human A375 cells harboring BRAF mutant assessed as reduction in cell viability. It is filed as functional, cell-based.
The test system of data set [2] is A549. The experiment in a line: Antiproliferative activity against human A549 cells harboring KRAS mutant assessed as reduction in cell viability. It is filed as functional, cell-based.
The test system of data set [3] is A549. Kind of data set: Synergistic antiproliferative activity against human A549 cells harboring KRAS mutant assessed as reduction in cell viability in presence of 100 nM cobi-metinib. In kind it is functional, cell-based.
In data set [4] the test system is Mus musculus. Kind of data set: In vivo inhibition of RAF in human HCT116 cells xenografted in NCR mouse assessed as inhibition of DUSP6 gene expression at 5 mg/kg, po qd for 4 days measured upto 24 hrs of last dose. The note with it: time 4.0 day. It is filed as functional, organism-based. On the technique in general: In xenograft studies the graft and the host belong to different species.

Data set [5] deals with Mus musculus. Kind of data set: In vivo inhibition of RAF in human HCT116 cells xenografted in NCR mouse assessed as inhibition of SPRY4 gene expression at 5 mg/kg, po qd for 4 days measured upto 24 hrs of last dose. It is filed as functional, organism-based. The note with it: time 4.0 day.
In data set [6] the target is Serine/threonine-protein kinase B-raf (Homo sapiens, UniProt P15056). Kind of data set: Inhibition of BRAF (unknown origin) (416 to 766) assessed as using inactive phosphorylated MAP2K1 substrate preincubated for 30 mins measured after 90 mins by DELFIA assay.
In data set [7] the target is RAF proto-oncogene serine/threonine-protein kinase (Homo sapiens, UniProt P04049, Y340D/Y341D). The experiment in a line: Inhibition of CRAF Y340D/Y341D mutant (unknown origin) assessed as using inactive phosphorylated MAP2K1 substrate preincubated for 30 mins measured after 90 mins by DELFIA assay.
Data set [8] can be described thus: Apparent permeability across apical to basolateral side in MDCK cells. The note with it: dog. It is filed as ADME, cell-based, Canis lupus familiaris.
Data set [9] in a line: Efflux ratio of permeability across basolateral to apical side over apical to basolateral side in MDCK cells. The settings on record: dog. In kind it is ADME, cell-based, Canis lupus familiaris.
Data set [10] can be described thus: Volume of distribution in mouse at 1 mg/kg, iv. In kind it is ADME, organism-based. The settings on record: in vivo.
Data set [11] in a line: Half life in mouse. In kind it is ADME, organism-based. The settings on record: in vivo.
Data set [12] in a line: Clearance in mouse at 1 mg/kg, iv. The note with it: in vivo. In kind it is ADME, organism-based.
Data set [13] in a line: Oral bioavailability in mouse at 5 mg/kg. It is filed as ADME, organism-based. The settings on record: in vivo.
Data set [14] deals with Mus musculus. The experiment in a line: In vivo inhibition of RAF in human HCT116 cells xenografted in NCR mouse assessed as inhibition of DUSP6 gene expression in presence of Cobi-metinib at 15 mg/kg, po qd for 4 days measured at 24 hrs of last dose. The note with it: time 4.0 day. In kind it is functional, organism-based.
Data set [15] deals with Mus musculus. The experiment in a line: In vivo inhibition of RAF in human HCT116 cells xenografted in NCR mouse assessed as inhibition of pRSK gene expression in presence of Cobi-metinib at 15 mg/kg, po qd for 4 days measured at 24 hrs of last dose. It is filed as functional, organism-based. The note with it: time 4.0 day.
Data set [16] deals with Mus musculus. The experiment in a line: In vivo inhibition of RAF in human HCT116 cells xenografted in NCR mouse assessed as inhibition of SPRY4 gene expression at 15 mg/kg, po qd for 4 days measured upto 24 hrs of last dose. The note with it: time 4.0 day. It is filed as functional, organism-based.
Data set [17] has as its system Mus musculus. The experiment in a line: In vivo inhibition of RAF in human HCT116 cells xenografted in NCR mouse assessed as inhibition of SPRY4 gene expression in presence of Cobi-metinib at 15 mg/kg, po qd for 4 days measured upto 8 hrs of last dose. It is filed as functional, organism-based. The settings on record: time 4.0 day.
Data set [18] deals with Mus musculus. The experiment in a line: In vivo inhibition of RAF in human HCT116 cells xenografted in NCR mouse assessed as inhibition of DUSP6 gene expression at 15 mg/kg, po qd for 4 days measured upto 24 hrs of last dose. It is filed as functional, organism-based. The note with it: time 4.0 day.
For data set [19], the system named is Mus musculus. Kind of data set: In vivo inhibition of RAF in human HCT116 cells xenografted in NCR mouse assessed as inhibition of SPRY4 gene expression in presence of Cobi-metinib at 15 mg/kg, po qd for 4 days measured at 24 hrs of last dose. In kind it is functional, organism-based. The settings on record: time 4.0 day.
Data set [20] has as its system Mus musculus. Kind of data set: In vivo inhibition of RAF in human HCT116 cells xenografted in NCR mouse assessed as inhibition of DUSP6 gene expression in presence of Cobi-metinib at 15 mg/kg, po qd for 4 days measured upto 8 hrs of last dose. In kind it is functional, organism-based. The note with it: time 4.0 day.
The test system of data set [21] is Mus musculus. The experiment in a line: In vivo inhibition of RAF in human HCT116 cells xenografted in NCR mouse assessed as inhibition of pRSK gene expression in presence of Cobi-metinib at 15 mg/kg, po qd for 4 days measured upto 8 hrs of last dose. It is filed as functional, organism-based. The note with it: time 4.0 day.

Structures are written as SMILES. The source made the active and inactive calls. No cut-off for these calls is given here.

Chain of RAF proto-oncogene serine/threonine-protein kinase (P04049 whole entry Y340D/Y341D): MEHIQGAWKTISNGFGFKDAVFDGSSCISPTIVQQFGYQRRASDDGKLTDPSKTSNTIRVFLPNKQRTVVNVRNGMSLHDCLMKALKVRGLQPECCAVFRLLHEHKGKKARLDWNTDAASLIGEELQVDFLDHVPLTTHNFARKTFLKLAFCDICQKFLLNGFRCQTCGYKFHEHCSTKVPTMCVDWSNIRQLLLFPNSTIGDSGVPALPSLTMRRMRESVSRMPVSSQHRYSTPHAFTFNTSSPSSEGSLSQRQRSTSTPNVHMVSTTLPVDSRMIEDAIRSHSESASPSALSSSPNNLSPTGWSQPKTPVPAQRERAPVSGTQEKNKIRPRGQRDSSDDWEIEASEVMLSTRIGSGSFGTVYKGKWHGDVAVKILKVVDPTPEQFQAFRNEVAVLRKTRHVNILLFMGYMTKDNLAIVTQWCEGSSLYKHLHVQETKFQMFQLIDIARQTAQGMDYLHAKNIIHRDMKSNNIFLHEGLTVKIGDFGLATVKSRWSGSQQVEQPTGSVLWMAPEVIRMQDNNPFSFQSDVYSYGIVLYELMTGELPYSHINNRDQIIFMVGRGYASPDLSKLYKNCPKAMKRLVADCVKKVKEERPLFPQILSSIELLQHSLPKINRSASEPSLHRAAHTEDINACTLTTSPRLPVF
Chain of Serine/threonine-protein kinase B-raf (P15056 whole entry): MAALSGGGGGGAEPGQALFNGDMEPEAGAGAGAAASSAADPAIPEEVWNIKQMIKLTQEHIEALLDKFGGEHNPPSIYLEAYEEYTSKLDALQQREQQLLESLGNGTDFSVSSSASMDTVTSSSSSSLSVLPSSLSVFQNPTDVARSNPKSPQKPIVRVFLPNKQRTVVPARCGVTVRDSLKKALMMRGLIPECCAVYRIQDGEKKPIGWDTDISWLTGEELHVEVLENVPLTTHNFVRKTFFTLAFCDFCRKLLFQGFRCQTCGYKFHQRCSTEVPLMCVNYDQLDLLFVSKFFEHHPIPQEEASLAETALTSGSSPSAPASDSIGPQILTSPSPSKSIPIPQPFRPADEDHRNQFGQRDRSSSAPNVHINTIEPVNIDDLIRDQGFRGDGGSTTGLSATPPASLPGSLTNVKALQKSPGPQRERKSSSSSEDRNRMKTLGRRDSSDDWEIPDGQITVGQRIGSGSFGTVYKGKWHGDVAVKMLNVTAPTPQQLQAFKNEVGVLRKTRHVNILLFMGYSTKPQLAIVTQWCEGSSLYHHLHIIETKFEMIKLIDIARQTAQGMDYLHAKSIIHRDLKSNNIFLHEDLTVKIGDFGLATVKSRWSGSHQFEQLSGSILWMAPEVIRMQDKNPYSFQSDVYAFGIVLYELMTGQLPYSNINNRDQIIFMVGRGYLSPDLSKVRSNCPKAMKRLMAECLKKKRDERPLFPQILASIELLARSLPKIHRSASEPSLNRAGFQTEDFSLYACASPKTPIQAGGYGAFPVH

Regarding `CNc1ncc2cc(-c3cc(NC(=O)NCCC(C)(C)C)c(F)cc3C)c(C)nc2n1` [LY-3009120], the IC50 amounted to 28.3 nM in [1], 545 nM in data set [2] and 45.6 nM in data set [3].

Regarding `O=C(c1ccc(F)c(F)c1Nc1ccc(I)cc1F)N1CC(O)([C@@H]2CCCCN2)C1`, the inhibition entry in [4] and in [5] was “Active” each time.

With `Cc1cc(F)c(NC(=O)NCCC(C)(C)C)cc1Nc1ccc2ncn(C)c(=O)c2c1F`, in data set [6], the Ki was below 0.08 nM. Besides, the IC50 in data set [2] and in data set [3] was 2900 nM throughout.

As to `Cc1cc(F)c(C(=O)NCCCC(C)(C)C)cc1-c1ccc2c(=O)n(C)ncc2c1`, the inhibition constant (Ki) in data set [7] was 0.06 nM; in data set [6], 0.12 nM. Further, in data set [8], the Papp A→B is 8.1 ×10⁻⁶ cm/s. Also, the values for the IC50 in data set [2] and in data set [3] were 7730 nM and 1120 nM, respectively. The efflux ratio in [9] is 0.74.

For the molecule `Cc1cc(F)c(NC(=O)NCCC(C)(C)C)cc1-c1ccc2c(=O)n(C)ncc2c1`, the Ki in data set [7] was below 0.05 nM; in data set [6] it was below 0.08 nM. This molecule also returned a volume of distribution (Vd) in [10] of 2.1 L/kg. The Papp A→B in [8] is 8.7 ×10⁻⁶ cm/s. The same molecule gave a half-life in data set [11] of 1.3 h. In addition, the IC50 in [1] is 210 nM; in data set [2] it was 1590 nM; in [3], 187 nM. For the same molecule, the clearance in data set [12] was 22 mL/min/kg. For the same molecule, the bioavailability in [13] is 2%. Besides, the efflux ratio in data set [9] was 0.5.

Regarding `Cc1cc(F)c(NC(=O)c2cccc(C(C)(C)C#N)c2)cc1-c1ccc2c(=O)n(C)ncc2c1`, the Ki was below 0.05 nM in [7] and below 0.08 nM in data set [6]. The Papp A→B in [8] came out at 7.8 ×10⁻⁶ cm/s. Further, the figures for the IC50 in [2] and in data set [3] were 1360 nM and 138 nM, respectively. Moreover, the efflux ratio in data set [9] was 1.

Turning to `Cc1cc(F)c(NC(=O)c2cccc(C(C)(C)C#N)c2)cc1-c1cnc2c(=O)n(C)ncc2c1`, the inhibitory constant (Ki) turned out to be 0.062 nM in data set [7] and 0.19 nM in data set [6]. This molecule also returned a distribution volume (Vd) in data set [10] of 1.7 L/kg. Further, the inhibition entry in [14], in data set [15] and in [19] was “inactive” throughout. In data set [8], the Papp A→B was 14 ×10⁻⁶ cm/s. Besides, in data set [11], the half-life was 1.9 h. Also, the inhibition result in data set [16], in [17], in data set [18], in [20] and in data set [21] was “Active” in each case. This molecule registered a clearance in data set [12] of 17 mL/min/kg. In addition, the half-inhibitory concentration (IC50) in [2] stood at 5470 nM; in data set [3] it was 369 nM. Also, the bioavailability in [13] came out at 37%. For the same molecule, the efflux ratio in data set [9] was found to be 0.86.

As for `Cc1cc(F)c(NC(=O)NCCC(C)(C)C)cc1-c1ccc2cc(N)ncc2c1`, the Ki in [7] is below 0.05 nM; in data set [6], below 0.08 nM. Besides, the IC50 turned out to be 224 nM in [1], 668 nM in data set [2] and 148 nM in data set [3].

On to `CNc1ncc2cc(-c3cc(NC(=O)NCCC(C)(C)C)c(F)cc3C)c(=O)n(C)c2n1`, for which the figures for the Ki in data set [7] and in data set [6] were 0.081 nM and 0.102 nM, respectively. In addition, the values for the IC50 in [1], in [2] and in data set [3] were 32.2 nM, 337 nM and 39.2 nM, respectively.

A word on the IC50: it is the point on the concentration scale where inhibition reaches its midpoint. Usually Ki stands for the equilibrium dissociation constant of an inhibitor or competing ligand from its target. A word on the Papp A→B: it is the apparent permeability from the apical to the basolateral side of a cell layer. As a reminder, the efflux ratio is the permeability from basolateral to apical divided by that in the opposite direction, in the common usage. By Vd is commonly meant the apparent volume that relates the amount in the body to the concentration in plasma or blood. As usually defined, the half-life is how long it takes for the measured level to halve. In general, clearance refers to the rate of elimination divided by the concentration. High values mean efficient removal, low ones inefficient removal. What is called bioavailability is dose-corrected exposure relative to a reference, in per cent. A higher bioavailability goes with much systemic uptake.
